Results from patent US6902926B1, “Toxoplasma gondii apical membrane antigen-1” (priority 2000, dated 2005).

Tested on: secretion of the 53-kDa fragment of TgAMA-1
Assay: Secretion assay: TgAMA-1 released from tachyzoites into culture supernatant, by western blot
Format: cell-based, Toxoplasma gondii
Conditions: for secretion of the 53-kDa fragment of TgAMA-1: 2-min treatment at 37° C.
Procedure: Tachyzoites (2F strain, constitutively expressing cytoplasmic β-galactosidase [generous gift of David Sibley]) were washed twice in DMEM+20 mM HEPES, pH 7.0 (4 min, 1000×g, 23° C.), and resuspended in 4 ml polystyrene round bottom tubes at a concentration of 2×10^8 tachyzoites/ml. The suspension was incubated for various times at 37° C. or treated for 15 min at 23° C. with either 1.0% (v/v) DMSO or 20 μM BAPTA-AM (1.0% [v/v] DMSO final), followed by 2 min at 37° C. with 200 nM A23187 (1.0% [v/v] DMSO final) or 1.0% ethanol. Cells were pelleted (4 min, 1000×g, 4° C.) and dissolved in SDS-PAGE sample buffer. Supernatants were recentrifuged (4 min, 1000×g, 4° C.) and dissolved in sample buffer. The samples were incubated for 10 min at 100° C. and analyzed by SDS-PAGE/western blotting. Gels to be probed with either Mab B3.90 or antipeptide antiserum UVT59 were run under non-reducing conditions; blots to be probed with Mab 6D10 were run under reducing conditions. The extent of parasite lysis was determined by measuring the levels of β-galactosidase in the supernatant, as previously described.

Q: Which “effect of pretreatment on ethanol/A23187-enhanced secretion of the 53-kDa fragment” value (pretreating the parasites before ethanol or A23187) does the source give for `CC(=O)OCOC(=O)CN(CC(=O)OCOC(C)=O)c1ccccc1OCCOc1ccccc1N(CC(=O)OCOC(C)=O)CC(=O)OCOC(C)=O` [BAPTA-AM] here?
A: abrogated

Q: For `CNc1ccc2oc(C[C@H]3O[C@@]4(CC[C@H]3C)O[C@H]([C@H](C)C(=O)c3ccc[nH]3)[C@H](C)C[C@H]4C)nc2c1C(=O)O` [A23187], which “secretion of the 53-kDa fragment of TgAMA-1” value is on record?
A: dramatically enhanced

Q: Which “secretion of the 53-kDa fragment of TgAMA-1” value does the source give for `CCO` [ethanol] here?
A: dramatically enhanced
